{"source": "patent US8247566B2", "about": "“Crystalline solvate of omeprazole sodium” (Lek Pharmaceuticals d.d., priority 2005, dated 2012)", "key": {"[1]": {"assay": "Solid state / storage stability", "assay_type": "physicochemical", "from_the_text": "The stability of omeprazole sodium form A obtained by the processes of the present invention may be determined by standard protocol for characterisation of stability of a pharmaceutically active substance (EU: Adopted by CPMP, March 2003, issued as CPMP/ICH/2736/99—“Committee for proprietary medical products; Note for Guidance on ICH Q1A (R2) Stability testing guidelines: Stability testing of new drug substances and products”). Packed omeprazole sodium form A was aged for a definite period of time (1 month, 3 months, 6 months) under accelerated conditions of aging (at a temperature of 40° C. and 75% relative humidity which is a standard accelerated condition for stability testing of pharmaceutical formulations) and/or stress condition of aging (at a temperature of 60° C. which is a standard stress condition for stability testing of pharmaceutically active substances). Determination of absorbance measured according to the PhEur method (PhEur 3 Suppl 2000) was used as a criterion for evaluation of the sample quality during stability testing. It has previously been shown that measurement of absorbance is a more sensitive method for monitoring the process of omeprazole sodium decomposition than, for example, detection of present impurities using chromatographic methods (PhEur 3 Suppl 2000)."}, "[2]": {"settings": "prior art description (US 6,207,188, US 2004/0224987); cited from earlier work"}, "[3]": {"settings": "prior art description (EP-B-124 495, US 6,207,188, US 2004/0224987); cited from earlier work"}, "Solubility in water": {"assay": "Solubility in water", "assay_type": "physicochemical"}}, "data": [{"smiles": "COc1ccc2[n-]c([S+]([O-])Cc3ncc(C)c(OC)c3C)nc2c1.[Na+]", "note": "(centres unmarked) [omeprazole sodium form E, omeprazole sodium]", "values": [{"measurement": "stability under special conditions", "setting": "[1]; stored under nitrogen atmosphere", "result": "stable compounds under special conditions"}]}, {"smiles": "COc1ccc2[n-]c([S+]([O-])Cc3ncc(C)c(OC)c3C)nc2c1.O.[Na+]", "note": "(centres unmarked) [omeprazole sodium form B, omeprazole sodium monohydrate salt]", "values": [{"measurement": "thermodynamic stability as described in prior art", "setting": "[2]", "result": "thermodynamically stable"}, {"measurement": "hygroscopicity as described in prior art", "setting": "[3]", "result": "non-hygroscopic"}]}, {"smiles": "COc1ccc2[n-]c([S+]([O-])Cc3ncc(C)c(OC)c3C)nc2c1.[Na+]", "note": "(centres unmarked) [omeprazole sodium form A, omeprazole sodium]", "values": [{"measurement": "solubility in water", "setting": "Solubility in water", "result": "highly soluble in water"}, {"measurement": "stability on storage (chemical composition, hygroscopicity, solubility, crystalline form)", "setting": "[1]", "result": "stable"}]}]}
